Experimental data published in the supplement of paper PMC10307832.

Experiments:
Experiment in all cases: relative viability (nuclei count vs DMSO), 5 days (fraction); higher = more cells survive
HARA = test system: HARA
Outline: (§1)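 Relative viability divides the nuclei count in treated wells by that in vehicle wells. Lung cancer cell lines were seeded in 1536-well plates, dosed by pin tool the next day, and fixed and stained after 5 days in one step with final 0.05% Triton X-100, 1% formaldehyde and 1 ug/ml Hoechst. Dosing was a single drug or a fixed anchor-drug dose plus five library-drug doses (not always all listed) in √10 steps, and values are medians of duplicate plates imaged at 4×.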

201T = test system: 201T
Outline: as §1

NCI-H661 = test system: NCI-H661
Outline: as §1

LCLC-103H = test system: LCLC-103H
Outline: as §1

SK-LU-1 = test system: SK-LU-1
Outline: as §1

ChaGo-K-1 = test system: ChaGo-K-1
Outline: as §1

H3255 = test system: H3255
Outline: as §1

COR-L 105 = test system: COR-L 105
Outline: as §1

NCI-H1975 = test system: NCI-H1975
Outline: as §1

NCI-H3122 = test system: NCI-H3122
Outline: as §1

HOP-62 = test system: HOP-62
Outline: as §1

HCC-827 = test system: HCC-827
Outline: as §1

NCI-H23 = test system: NCI-H23
Outline: as §1

NCI-H2126 = test system: NCI-H2126
Outline: as §1

NCI-H650 = test system: NCI-H650
Outline: as §1

NCI-H2405 = test system: NCI-H2405
Outline: as §1

NCI-H596 = test system: NCI-H596
Outline: as §1

PC-3 [JPC-3] = test system: PC-3 [JPC-3]
Outline: as §1

NCI-H727 = test system: NCI-H727
Outline: as §1

LOU-NH91 = test system: LOU-NH91
Outline: as §1

NCI-H2228 = test system: NCI-H2228
Outline: as §1

EKVX = test system: EKVX
Outline: as §1

Q: What does the source list for `CN1CCN(CCOc2cc(OC3CCOCC3)c3c(Nc4c(Cl)ccc5c4OCO5)ncnc3c2)CC1` [Saracatinib] + CC(C)C[C@H](NC(=O)[C@H](Cc1ccccc1)NC(=O)c1cnccn1)B(O)O [Bortezomib] (partner 0.002 µM)?
A: relative viability (HARA; first compound 0.02 µM): 1.12; relative viability (HARA; first compound 0.6325 µM): 1.08; relative viability (HARA; first compound 2 µM): 0.602; relative viability (201T; first compound 0.02 µM): 1.07; relative viability (201T; first compound 0.2 µM): 1; relative viability (201T; first compound 0.6325 µM): 1.04; relative viability (201T; first compound 2 µM): 0.848; relative viability (NCI-H661; first compound 0.02 µM): 0.831; relative viability (NCI-H661; first compound 0.2 µM): 0.849; relative viability (NCI-H661; first compound 0.6325 µM): 0.837; relative viability (NCI-H661; first compound 2 µM): 0.373; relative viability (LCLC-103H; first compound 0.02 µM): 1.21; relative viability (LCLC-103H; first compound 0.2 µM): 0.963; relative viability (LCLC-103H; first compound 0.6325 µM): 1.09; relative viability (LCLC-103H; first compound 2 µM): 0.941; relative viability (SK-LU-1; first compound 0.02 µM): 1.31; relative viability (SK-LU-1; first compound 0.2 µM): 1.19; relative viability (SK-LU-1; first compound 0.6325 µM): 0.829; relative viability (SK-LU-1; first compound 2 µM): 0.735; relative viability (ChaGo-K-1; first compound 0.02 µM): 1.1; relative viability (ChaGo-K-1; first compound 0.2 µM): 0.866; relative viability (ChaGo-K-1; first compound 0.6325 µM): 1.05; relative viability (ChaGo-K-1; first compound 2 µM): 0.79; relative viability (H3255; first compound 0.02 µM): 0.864; relative viability (H3255; first compound 0.2 µM): 0.892; relative viability (H3255; first compound 0.6325 µM): 0.812; relative viability (H3255; first compound 2 µM): 0.272; relative viability (COR-L 105; first compound 0.02 µM): 1.11; relative viability (COR-L 105; first compound 0.2 µM): 0.699; relative viability (COR-L 105; first compound 0.6325 µM): 0.707; relative viability (COR-L 105; first compound 2 µM): 0.432; relative viability (NCI-H1975; first compound 0.02 µM): 0.356; relative viability (NCI-H1975; first compound 0.6325 µM): 0.443; relative viability (NCI-H1975; first compound 2 µM): 0.331; relative viability (NCI-H3122; first compound 0.02 µM): 1.05; relative viability (NCI-H3122; first compound 0.6325 µM): 0.964; relative viability (NCI-H3122; first compound 2 µM): 0.815; relative viability (HOP-62; first compound 0.02 µM): 0.715; relative viability (HOP-62; first compound 0.2 µM): 0.718; relative viability (HOP-62; first compound 0.6325 µM): 0.692; relative viability (HOP-62; first compound 2 µM): 1.06; relative viability (HCC-827; first compound 0.02 µM): 0.965; relative viability (HCC-827; first compound 0.2 µM): 0.963; relative viability (HCC-827; first compound 0.6325 µM): 0.479; relative viability (HCC-827; first compound 2 µM): 0.306; relative viability (NCI-H23; first compound 0.02 µM): 1.09; relative viability (NCI-H23; first compound 0.6325 µM): 0.95; relative viability (NCI-H23; first compound 2 µM): 1.12; relative viability (NCI-H2126; first compound 0.02 µM): 1.09; relative viability (NCI-H2126; first compound 0.2 µM): 1.02; relative viability (NCI-H2126; first compound 0.6325 µM): 1.11; relative viability (NCI-H2126; first compound 2 µM): 0.996; relative viability (NCI-H650; first compound 0.02 µM): 0.925; relative viability (NCI-H650; first compound 0.2 µM): 0.751; relative viability (NCI-H650; first compound 0.6325 µM): 0.947; relative viability (NCI-H650; first compound 2 µM): 0.799; relative viability (NCI-H2405; first compound 0.02 µM): 1.03; relative viability (NCI-H2405; first compound 0.2 µM): 0.749; relative viability (NCI-H2405; first compound 0.6325 µM): 0.736; relative viability (NCI-H2405; first compound 2 µM): 0.716; relative viability (NCI-H596; first compound 0.02 µM): 0.98; relative viability (NCI-H596; first compound 0.2 µM): 0.999; relative viability (NCI-H596; first compound 0.6325 µM): 1.01; relative viability (NCI-H596; first compound 2 µM): 0.814; relative viability (PC-3 [JPC-3]; first compound 0.02 µM): 0.905; relative viability (PC-3 [JPC-3]; first compound 0.2 µM): 0.721; relative viability (PC-3 [JPC-3]; first compound 0.6325 µM): 0.778; relative viability (PC-3 [JPC-3]; first compound 2 µM): 0.486; relative viability (NCI-H727; first compound 0.02 µM): 0.923; relative viability (NCI-H727; first compound 0.2 µM): 0.535; relative viability (NCI-H727; first compound 0.6325 µM): 1.09; relative viability (NCI-H727; first compound 2 µM): 0.506; relative viability (LOU-NH91; first compound 0.02 µM): 0.538; relative viability (LOU-NH91; first compound 0.2 µM): 0.457; relative viability (LOU-NH91; first compound 0.6325 µM): 0.521; relative viability (LOU-NH91; first compound 2 µM): 0.533; relative viability (NCI-H2228; first compound 0.02 µM): 1.05; relative viability (NCI-H2228; first compound 0.2 µM): 0.684; relative viability (NCI-H2228; first compound 0.6325 µM): 1.2; relative viability (NCI-H2228; first compound 2 µM): 0.652; relative viability (EKVX; first compound 0.02 µM): 0.961; relative viability (EKVX; first compound 0.2 µM): 0.861; relative viability (EKVX; first compound 0.6325 µM): 1.16; relative viability (EKVX; first compound 2 µM): 0.347
